The text below walks through data of patent publication US8088426B2, “Kokumi flavour compounds and use” (priority 2005, dated 2012).

Holding throughout (type): in vivo
Assay [1] concerns trained sensory panel. The assay is described as follows: Sensory triangle test, kokumi taste in chicken broth. The note with it: for Sensory descriptors: pH 6.5, versus broth without additives. The procedure: Unless otherwise indicated, all sensory tests are triangle tests and are performed according to the guidelines in “Amtliche Sammlung von Untersuchungsverfahren nach § 35 LMBG (Lebensmittel-und Bedarfsgegenständegesetz)”; L 00.90 7, Untersuchung von Lebensmitteln, Sensorische Prüfverfahren, Dreiecksprüfung (Übernahme der gleichnahmigen Deutschen Norm DIN ISO 4120, Ausgabe Januar 1995), as follows:
The sensory panel is trained to evaluate the taste of aqueous solutions (4 ml each) of the following standard taste compounds by using a triangle test as described in the literature (Wieser and Belitz, Z. Lebensm. Unters. Forsch., 1975, 159, 65-72): sucrose (40 mmol/L) for sweet taste; citric acid (5 mmol/L) for sour taste; NaCl (12 mmol/L) for salt taste; caffeine (2 mmol/L) for bitter taste; and monosodium glutamate (MSG) (6 mmol/L) for umami taste. For kokumi taste, a solution of GSH (glutathione, 10 mmol/L) in diluted chicken broth concentrate (Goumet Bouillon Huhn, Maggi, Singen, Germany; 3 g/100 g bottled water (Evian®)) is prepared and compared to the taste of chicken broth with no glutathione added.
All sensory analyses are performed in a sensory panel room at 22-25° C. over three different sessions by a trained panel of 8 to 10 individuals.
For recording the taste profiles, samples are prepared as indicated in the examples below. Taste profiles of samples are determined in a triangle test in three different sessions. Panellists refrain from eating or drinking for at least 1 hour prior to the session. At the start of the session and before each trial, the subject rinsed with water and expectorated. The participants receive a set of two blanks and one taste sample. Liquid samples are swirled around in the mouth briefly and expectorated. Solid samples are chewed for 20 seconds and then expectorated. […] Each sample with additive is compared to two reference samples without additives. Kokumi intensity is rated according to a scale from 0 to 5 (with 5 most intensive). The additive is added to a consumable and the sample is homogenised. The samples are presented to the sensory panel directly after homogenisation. The sensory panel in all tests included 8 trained individuals.
Chicken Broth is prepared by dilution of 3 g chicken broth concentrate (Gourmet Bouillon Huhn; Maggi, Singen, Germany) with 100 ml water (Evian). Additives are added as specified in table below.
For each sample, kokumi intensity is rated and panelists are asked to describe sensory characteristics.

Assay [2] has as its system trained sensory panel. The assay is described as follows: Sensory triangle test, kokumi compounds in ketchup. The note with it: 2500 ppm; for Panelists indicating more meaty, bouillon-like, intensified overall taste: panel of 8. The procedure:
Unless otherwise indicated, all sensory tests are triangle tests and are performed according to the guidelines in “[…] von […]-und Bedarfsgegenständegesetz)”; L 00.90 7, Untersuchung von Lebensmitteln, Sensorische […] Deutschen Norm DIN ISO 4120, Ausgabe Januar 1995), as follows: All sensory analyses are performed in a sensory panel room at 22-25° C. over three different sessions by a trained panel of 8 to 10 individuals. For recording the taste profiles, samples are prepared as indicated in the examples below. Taste profiles of samples are determined in a triangle test in three different sessions. Panellists refrain from eating or drinking for at least 1 hour prior to the session. At the start of the session and before each trial, the subject rinsed with water and expectorated. The participants receive a set of two blanks and one taste sample. Liquid samples are swirled around in the mouth briefly and expectorated. Solid samples are chewed for 20 seconds and then expectorated. […] Each sample with additive is compared to two reference samples without additives. Kokumi intensity is rated according to a scale from 0 to 5 (with 5 most intensive). The additive is added to a consumable and the sample is homogenised. The samples are presented to the sensory panel directly after homogenisation. The sensory panel in all tests included 8 trained individuals. Compounds as indicated in the table below are added to ketchup (Kraft) in a concentration of 2500 ppm.

Assay [3] relates to trained sensory panel. The assay is described as follows: Sensory triangle test, kokumi compounds in tomato juice. The following applies: for Panelists preferring the sample: panel of 8; for Test results (taste description): versus reference without additives. As to the method:
Unless otherwise indicated, all sensory tests are triangle tests and are performed according to the guidelines in “[…] von […]-und Bedarfsgegenständegesetz)”; L 00.90 7, Untersuchung von Lebensmitteln, Sensorische […] Deutschen Norm DIN ISO 4120, Ausgabe Januar 1995), as follows: All sensory analyses are performed in a sensory panel room at 22-25° C. over three different sessions by a trained panel of 8 to 10 individuals. For recording the taste profiles, samples are prepared as indicated in the examples below. Taste profiles of samples are determined in a triangle test in three different sessions. Panellists refrain from eating or drinking for at least 1 hour prior to the session. At the start of the session and before each trial, the subject rinsed with water and expectorated. The participants receive a set of two blanks and one taste sample. Liquid samples are swirled around in the mouth briefly and expectorated. Solid samples are chewed for 20 seconds and then expectorated. […] Each sample with additive is compared to two reference samples without additives. Kokumi intensity is rated according to a scale from 0 to 5 (with 5 most intensive). The additive is added to a consumable and the sample is homogenised. The samples are presented to the sensory panel directly after homogenisation. The sensory panel in all tests included 8 trained individuals. Compounds as indicated in the table below are added to tomato juice (Albi, Germany) in the concentrations indicated below.

Setting [4] is: additive 10 mmol/L, pH 6.5, scale 0 to 5 (5 most intensive), broth without additives rated 2.

“Also recorded” adds a separate entry of the source.

Regarding `N[C@@H](CCC(=O)N[C@@H](CS)C(=O)NCC(=O)O)C(=O)O` [GSH, reduced form, Gamma-L-glutamyl-L-cysteinyl-glycine], the “Kokumi intensity (0-5)” value in assay [1] (setting [4]) is on record as 3.5.

Turning to `N[C@@H](CCC(=O)O)C(=O)[O-].[Na+]` [MSG, mono sodium glutamate], the “Kokumi intensity (0-5)” value in assay [1] (setting [4]) stood at 2. For the same molecule, the Sensory descriptors entry in assay [1] (additive 10 mmol/L) is “higher umami (taste of MSG) intensity; also recorded: no effect on mouthfulness and complexity of the taste profile; also recorded: Increased umami taste”.

For `[Cl-].[Na+]` [NaCl], the “Kokumi intensity (0-5)” value in assay [1] (additive 30 mmol/L, pH 6.5, scale 0 to 5, broth without additives rated 2) is 2. Also, the Sensory descriptors entry in assay [1] (additive 30 mmol/L) was “more salty than the negative control; also recorded: no effect on mouthfulness and complexity of the taste profile; also recorded: increased salty taste”.

Turning to `CCOC(=O)CC(SC[C@H](NC(=O)CC[C@H](N)C(=O)O)C(=O)O)C(=O)OCC` (stereo partly drawn) [S-(α,β-dicarboxyethyl diethylester) γ-L-glutamyl-L-cysteine], in assay [2], the “Panelists indicating more meaty, bouillon-like, intensified overall taste” value is on record as 7 out of 8. In assay [1] (setting [4]), the “Kokumi intensity (0-5)” value turned out to be 4.5. Besides, in assay [3] (1000 ppm), the “Panelists preferring the sample” value is “all panelists” and the “Test results (taste description)” value is given as “even more pronounced kokumi sensation”.

`CCOC(=O)CC(SC[C@H](NC(=O)CC[C@H](N)C(=O)O)C(=O)NCC(=O)O)C(=O)OCC` (stereo partly drawn) [S-(α,β-dicarboxyethyl diethylester) γ-L-glutamyl-L-cysteinyl-glycine]: in assay [2], the “Observed effect compared to S-(α,β-dicarboxyethyl diethylester) γ-L-glutamyl-L-cysteine” value is “lower” and the “Panelists indicating more meaty, bouillon-like, intensified overall taste” value is on record as 7 out of 8. Moreover, in assay [1] (setting [4]), the “Kokumi intensity (0-5)” value turned out to be 3.5. Besides, in assay [3] (1000 ppm), the “Panelists preferring the sample” value is given as 6 out of 8; the “Test results (taste description)” value is “more intensive and well-balanced kokumi taste”. Further, the “Test results (taste description)” value in assay [3] (5000 ppm) is recorded as “increased with ascending concentrations”.

For the molecule `COC(=O)CC(SC[C@H](NC(=O)CC[C@H](N)C(=O)O)C(=O)O)C(=O)OC` (stereo partly drawn) [S-(α,β-dicarboxyethyl dimethylester) γ-L-glutamyl-L-cysteine], the “Kokumi intensity (0-5)” value in assay [1] (setting [4]) was determined as 4.5.

In the case of `COC(=O)CC(SC[C@H](NC(=O)CC[C@H](N)C(=O)O)C(=O)NCC(=O)O)C(=O)OC` (stereo partly drawn) [S-(α,β-dicarboxyethyl dimethylester) γ-L-glutamyl-L-cysteinyl-glycine], the “Kokumi intensity (0-5)” value in assay [1] (setting [4]) was 3.5.

Regarding `CCCOC(=O)CC(SC[C@H](NC(=O)CC[C@H](N)C(=O)O)C(=O)O)C(=O)OCCC` (stereo partly drawn) [S-(α,β-dicarboxyethyl dipropylester) γ-L-glutamyl-L-cysteine], the Sensory descriptors result in assay [1] (additive 10 mmol/L) is “bitter”.

As for `CCCOC(=O)CC(SC[C@H](NC(=O)CC[C@H](N)C(=O)O)C(=O)NCC(=O)O)C(=O)OCCC` (stereo partly drawn) [S-(α,β-dicarboxyethyl dipropylester) γ-L-glutamyl-L-cysteinyl-glycine], the Sensory descriptors entry in assay [1] (additive 10 mmol/L) was “bitter”.
